Where two headings read alike, the source gives them in different places.
Legend:
Format in all cases: biochemical
α-Galactosidase = target: T1, α-Galactosidase (Homo sapiens, UniProt P06280); experiment: inhibition of human liver α-galactosidase; conditions: read-out: % Inhibition of Glycosidase Activity, α-Galactosidase
T1 construct: Human liver glycosidases were assayed; from tissue; host or cells: human liver
T1 sequence (P06280 32-429): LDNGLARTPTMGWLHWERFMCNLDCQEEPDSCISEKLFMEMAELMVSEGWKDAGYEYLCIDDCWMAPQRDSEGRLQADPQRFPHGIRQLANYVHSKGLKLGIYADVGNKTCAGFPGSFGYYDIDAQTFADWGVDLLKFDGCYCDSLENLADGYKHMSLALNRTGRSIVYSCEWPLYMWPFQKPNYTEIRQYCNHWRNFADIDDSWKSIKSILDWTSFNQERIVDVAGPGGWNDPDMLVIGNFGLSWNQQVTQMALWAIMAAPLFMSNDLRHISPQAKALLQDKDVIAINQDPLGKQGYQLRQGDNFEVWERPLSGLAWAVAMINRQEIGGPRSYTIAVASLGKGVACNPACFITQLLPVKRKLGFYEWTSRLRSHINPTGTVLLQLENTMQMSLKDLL
Protocol: (§1) Human liver glycosidases were assayed in the absence and presence [1 mM] of each of the potential inhibitors, using the appropriate buffered 4-methylumbelliferyl glycosides as substrates, as previously described.^17 See Table I, below.

Neutral α-Mannosidase = target: T2, Neutral α-Mannosidase (Homo sapiens, UniProt Q9NTJ4); experiment: inhibition of human liver neutral α-mannosidase; conditions: for inhibition at 1000 µM: 1 mM inhibitor, read-out: % Inhibition of Glycosidase Activity, α-Mannosidase Neutral
T2 construct: Human liver glycosidases were assayed; from tissue; host or cells: human liver
T2 sequence (Q9NTJ4 1-1040): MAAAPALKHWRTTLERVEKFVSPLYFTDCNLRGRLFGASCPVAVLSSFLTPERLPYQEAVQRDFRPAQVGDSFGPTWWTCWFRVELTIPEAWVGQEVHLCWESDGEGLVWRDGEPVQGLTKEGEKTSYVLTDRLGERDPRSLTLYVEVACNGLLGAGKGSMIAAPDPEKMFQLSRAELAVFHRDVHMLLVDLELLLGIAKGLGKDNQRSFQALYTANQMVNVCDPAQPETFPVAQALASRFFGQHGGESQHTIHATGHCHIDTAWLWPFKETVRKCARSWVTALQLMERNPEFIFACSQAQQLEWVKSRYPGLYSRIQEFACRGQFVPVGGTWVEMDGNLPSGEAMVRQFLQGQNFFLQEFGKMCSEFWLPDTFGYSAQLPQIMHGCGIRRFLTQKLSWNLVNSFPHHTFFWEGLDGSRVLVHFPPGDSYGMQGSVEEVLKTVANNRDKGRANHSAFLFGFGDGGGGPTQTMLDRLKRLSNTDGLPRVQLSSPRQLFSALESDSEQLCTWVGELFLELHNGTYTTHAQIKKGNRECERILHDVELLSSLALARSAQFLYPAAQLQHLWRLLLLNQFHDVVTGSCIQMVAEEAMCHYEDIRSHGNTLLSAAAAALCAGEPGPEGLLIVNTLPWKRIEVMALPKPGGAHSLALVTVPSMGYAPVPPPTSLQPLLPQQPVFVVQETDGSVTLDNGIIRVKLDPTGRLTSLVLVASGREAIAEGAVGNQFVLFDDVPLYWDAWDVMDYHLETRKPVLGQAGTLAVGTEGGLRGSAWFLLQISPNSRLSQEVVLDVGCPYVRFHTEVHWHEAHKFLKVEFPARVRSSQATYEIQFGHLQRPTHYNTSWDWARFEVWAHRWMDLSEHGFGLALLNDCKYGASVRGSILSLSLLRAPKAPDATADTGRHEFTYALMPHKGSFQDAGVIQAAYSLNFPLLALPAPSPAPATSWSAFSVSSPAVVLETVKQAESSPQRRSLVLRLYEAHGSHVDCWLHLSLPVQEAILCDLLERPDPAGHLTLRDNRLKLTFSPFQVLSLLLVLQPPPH
Protocol: as §1

α-mannosidases = experiment: inhibition of human liver α-mannosidases (multiple forms taken together); conditions: for inhibition of α-mannosidases (in words): 1 mM
Protocol: as §1

β-Glucosidase = experiment: inhibition of human liver β-glucosidase; conditions: 1 mM inhibitor
Protocol: as §1

β-Xylosidase = target: T3, β-Xylosidase (Homo sapiens, UniProt Q9H227); experiment: inhibition of human liver β-xylosidase; conditions: 1 mM inhibitor; read-out: % Inhibition of Glycosidase Activity, β-Xylosidase
T3 construct: Human liver glycosidases were assayed; from tissue; host or cells: human liver
T3 sequence (Q9H227 1-469): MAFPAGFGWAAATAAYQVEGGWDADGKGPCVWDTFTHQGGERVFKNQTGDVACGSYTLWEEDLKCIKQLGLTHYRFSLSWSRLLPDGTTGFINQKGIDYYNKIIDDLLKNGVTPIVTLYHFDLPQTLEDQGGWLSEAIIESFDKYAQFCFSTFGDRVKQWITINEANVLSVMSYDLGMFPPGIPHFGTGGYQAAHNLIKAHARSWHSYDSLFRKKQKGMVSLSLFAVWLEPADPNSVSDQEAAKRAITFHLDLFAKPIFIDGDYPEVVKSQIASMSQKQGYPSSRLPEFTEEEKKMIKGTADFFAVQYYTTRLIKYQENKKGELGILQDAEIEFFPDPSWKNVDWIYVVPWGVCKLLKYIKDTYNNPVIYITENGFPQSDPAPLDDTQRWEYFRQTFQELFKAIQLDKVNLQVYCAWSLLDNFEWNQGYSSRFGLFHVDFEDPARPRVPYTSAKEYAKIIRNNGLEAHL
Protocol: as §1

α-Arabinosidase = experiment: inhibition of human liver α-arabinosidase; conditions: 1 mM inhibitor
Protocol: as §1

α-Fucosidase = target: T4, α-Fucosidase (Homo sapiens, UniProt P04066); experiment: inhibition of human liver α-fucosidase; conditions: for inhibition of α-fucosidase (in words): 1 mM; for inhibition at 1000 µM: 1 mM inhibitor, read-out: % Inhibition of Glycosidase Activity, α-Fucosidase
T4 construct: Human liver glycosidases were assayed; from tissue; host or cells: human liver
T4 sequence (P04066 32-466): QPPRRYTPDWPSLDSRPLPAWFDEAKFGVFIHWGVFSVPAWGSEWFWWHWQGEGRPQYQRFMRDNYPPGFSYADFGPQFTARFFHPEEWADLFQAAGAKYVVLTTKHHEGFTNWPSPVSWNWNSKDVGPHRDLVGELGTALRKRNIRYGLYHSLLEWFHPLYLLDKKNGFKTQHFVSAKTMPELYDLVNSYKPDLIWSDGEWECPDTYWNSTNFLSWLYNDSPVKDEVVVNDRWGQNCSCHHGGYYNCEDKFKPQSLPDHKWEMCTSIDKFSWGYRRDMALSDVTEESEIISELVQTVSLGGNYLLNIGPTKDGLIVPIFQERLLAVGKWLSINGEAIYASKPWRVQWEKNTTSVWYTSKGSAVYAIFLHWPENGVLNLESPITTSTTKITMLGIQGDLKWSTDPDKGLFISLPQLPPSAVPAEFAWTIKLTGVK
Protocol: as §1

[1] = listed as α-(aminomethyl)-1-deoxy-mannofuranose (5)

SMILES | inhibition at 1000 µM (α-Galactosidase; 1 mM inhibitor) [%] | inhibition at 1000 µM (Neutral α-Mannosidase) [%] | inhibition of α-mannosidases (in words) (α-mannosidases) | % Inhibition of Glycosidase Activity, β-Glucosidase (β-Glucosidase) [%] | inhibition at 1000 µM (β-Xylosidase) [%] | % Inhibition of Glycosidase Activity, α-Arabinosidase (α-Arabinosidase) [%] | inhibition of α-fucosidase (in words) (α-Fucosidase) | inhibition at 1000 µM (α-Galactosidase) [%] | inhibition at 1000 µM (α-Fucosidase) [%] | inhibition of α-fucosidase (in words) (α-Fucosidase; [1]) | inhibition of α-mannosidases (in words) (α-mannosidases; [1]) | inhibition of neutral α-mannosidase (in words) (Neutral α-Mannosidase; compared with DIM (3)) | inhibitory activity against α-mannosidase relative to DMJ (α-mannosidases; compared with DMJ (1)) | selectivity for α-mannosidases (in words) (α-mannosidases; compared with parent compound DMJ (1))
OC[C@@H](O)[C@H]1NC[C@@H](O)[C@H]1O [DIM (3)] | 0 | 89 | much more potent inhibitor than the piperidine analogues (1) and (2) of all the mannosidases investigated | 16 | 45 | 66 |  |  |  |  |  |  |  | 
OC[C@H]1NC[C@@H](O)[C@@H](O)[C@@H]1O [DMJ (1), deoxymannojirimycin] |  | 30 |  | 0 | 3 | 5 | potent inhibition of α-fucosidase | 0 |  |  |  |  |  | 
NC[C@H]1O[C@H]([C@H](O)CO)[C@H](O)[C@@H]1O [Manhepamine (5), 1-amino-2,5-anhydro-1-deoxy-D-glycero-D-talo-heptitol] | 0 | 2 | did not inhibit any of the α-mannosidases | 14 | 6 | 0 | moderate inhibition of α-fucosidase |  | 77 | moderate inhibitor of α-fucosidase | relatively inactive against α-mannosidases |  |  | 
OC[C@@H](O)[C@H]1N[C@H](CO)[C@@H](O)[C@H]1O [αHomoDIM (4), 2,5-dideoxy-2,5-imino-D-glycero-D-talo-heptitol] | 11 | 76 | still retaining significant inhibitory properties towards α-mannosidases | 23 | 21 | 25 | much less potent |  | 27 |  |  | decreases the inhibition of the lysosomal and neutral enzymes | about twice as effective as DMJ | 
OC[C@H]1N[C@H](CO)[C@@H](O)C(O)[C@@H]1O (some centres unmarked) [αHomoDMJ (2)] | 0 | 33 | does not affect appreciably the inhibition of the multiple forms of α-mannosidase | 0 | 0 | 0 | decrease markedly the potent inhibition of α-fucosidase |  | 29 |  |  |  |  | much more selective inhibitor of α-mannosidases than is the parent compound DMJ (1)

— US5384417A, “Heptitols” (priority 1994, dated 1995)
